The compounds below were run against T1, his-galectin-3 (Homo sapiens, UniProt P17931) (assay: TR-FRET assay (in vitro galectin-3 binding inhibitory activity test)). Conditions: Table 2; compound at 20 μM; 60 nM his-galectin-3, 15 nM biotin-ASF; read-out: % Inhibitory activity (at 20 μM).
T1 construct: purchased Abcam
Procedure, shortened: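 Compound is premixed with his-galectin-3 (60 nM final), then biotin-ASF (15 nM), Tb anti-His antibody (2 nM) and streptavidin-d2 (20 nM) are added. After at least 3.5 hours at RT in HEPES/NaCl buffer with Tween 20 and BSA, TR-FRET is read at 615/665 nm. DMSO serves as the uninhibited control, ASF omission as background.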

T1 sequence (P17931 whole entry): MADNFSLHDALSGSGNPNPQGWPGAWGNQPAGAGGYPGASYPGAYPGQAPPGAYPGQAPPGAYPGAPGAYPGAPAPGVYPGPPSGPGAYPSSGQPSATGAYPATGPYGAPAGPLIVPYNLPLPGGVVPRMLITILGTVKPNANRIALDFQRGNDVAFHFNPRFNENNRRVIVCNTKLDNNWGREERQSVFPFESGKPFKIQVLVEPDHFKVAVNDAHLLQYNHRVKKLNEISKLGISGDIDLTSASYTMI

| SMILES | inhibition at 20 µM |
| --- | --- |
| O=C(N[C@@H]1CCO[C@]12O[C@H](CO)[C@H](O)[C@H](n1cc(-c3cc(F)c(F)c(F)c3)nn1)[C@H]2O)c1cnc2sccn12 [Compound A200, N-((4R,5S,7R,8R,9S,10R)-8,10-dihydroxy-7-(hydroxymethyl)-9-(4-(3,4,5-trifluorophenyl)-1H-1,2,3-triazol-1-yl)-1,6-dioxaspiro[4.5]decan-4-yl)imidazo[2,1-b]thiazole-5-carboxamide] | 50 to 75% |
| O=C(N[C@@H]1CCO[C@]12O[C@H](CO)[C@H](O)[C@H](n1cc(-c3cc(F)c(F)c(F)c3)nn1)[C@H]2O)c1cc2ccccc2cc1Cl [Compound A201, 3-chloro-N-((4R,5S,7R,8R,9S,10R)-8,10-dihydroxy-7-(hydroxymethyl)-9-(4-(3,4,5-trifluorophenyl)-1H-1,2,3-triazol-1-yl)-1,6-dioxaspiro[4.5]decan-4-yl)-2-naphthamide] | > 75% |
| O=C(N[C@@H]1CCO[C@]12O[C@H](CO)[C@H](O)[C@H](n1cc(-c3cc(F)c(F)c(F)c3)nn1)[C@H]2O)c1ccnc2ccccc12 [Compound A207, N-((4R,5S,7R,8R,9S,10R)-8,10-dihydroxy-7-(hydroxymethyl)-9-(4-(3,4,5-trifluorophenyl)-1H-1,2,3-triazol-1-yl)-1,6-dioxaspiro[4.5]decan-4-yl)quinoline-4-carboxamide] | > 75% |
| O=C(N[C@@H]1CCO[C@]12O[C@H](CO)[C@H](O)[C@H](n1cc(-c3cc(F)c(F)c(F)c3)nn1)[C@H]2O)c1cccc2ncc(Br)cc12 [Compound A208, 3-bromo-N-((4R,5S,7R,8R,9S,10R)-8,10-dihydroxy-7-(hydroxymethyl)-9-(4-(3,4,5-trifluorophenyl)-1H-1,2,3-triazol-1-yl)-1,6-dioxaspiro[4.5]decan-4-yl)quinoline-5-carboxamide] | > 75% |

The next lines start with the values.

| inhibition at 20 µM | SMILES |
| --- | --- |
| < 25% | OC[C@H]1O[C@]2(OCC[C@H]2/N=C\c2c(O)ccc3ccccc23)[C@H](O)[C@@H](n2cc(-c3cc(F)c(F)c(F)c3)nn2)[C@H]1O [Compound A202, (4R,5S,7R,8R,9S,10R)-7-(hydroxymethyl)-4-((Z)-((2-hydroxynaphthalen-1-yl)methylene)amino)-9-(4-(3,4,5-trifluorophenyl)-1H-1,2,3-triazol-1-yl)-1,6-dioxaspiro[4.5]decane-8,10-diol] |
| 25 to 50% | OC[C@H]1O[C@]2(OCC[C@H]2/N=C\c2ccc3ccccc3c2O)[C@H](O)[C@@H](n2cc(-c3cc(F)c(F)c(F)c3)nn2)[C@H]1O [Compound A203, (4R,5S,7R,8R,9S,10R)-7-(hydroxymethyl)-4-((Z)-((1-hydroxynaphthalen-2-yl)methylene)amino)-9-(4-(3,4,5-trifluorophenyl)-1H-1,2,3-triazol-1-yl)-1,6-dioxaspiro[4.5]decane-8,10-diol] |
| > 75% | OC[C@H]1O[C@]2(OCC[C@H]2Nc2ccccc2)[C@H](O)[C@@H](n2cc(-c3cc(F)c(F)c(F)c3)nn2)[C@H]1O [Compound A206, (4R,5S,7R,8R,9S,10R)-7-(hydroxymethyl)-4-(phenylamino)-9-(4-(3,4,5-trifluorophenyl)-1H-1,2,3-triazol-1-yl)-1,6-dioxaspiro[4.5]decane-8,10-diol] |

Same assay, conditions: Table 3, found values; compound at 20 μM; 60 nM his-galectin-3, 15 nM biotin-ASF; read-out: % Inhibitory activity (at 20 μM)

| inhibition at 20 µM | SMILES |
| --- | --- |
| 63.3% | O=C(N[C@@H]1CCO[C@]12O[C@H](CO)[C@H](O)[C@H](n1cc(-c3cc(F)c(F)c(F)c3)nn1)[C@H]2O)c1cnc2sccn12 [Compound A200, N-((4R,5S,7R,8R,9S,10R)-8,10-dihydroxy-7-(hydroxymethyl)-9-(4-(3,4,5-trifluorophenyl)-1H-1,2,3-triazol-1-yl)-1,6-dioxaspiro[4.5]decan-4-yl)imidazo[2,1-b]thiazole-5-carboxamide] |

Same assay, conditions: read-out: % Inhibitory activity (at 20 μM), Table 2; compound at 20 μM; 60 nM his-galectin-3, 15 nM biotin-ASF

| SMILES | inhibition at 20 µM |
| --- | --- |
| OC[C@H]1O[C@]2(OCC[C@H]2n2cc(-c3ccccc3Cl)nn2)[C@H](O)[C@@H](n2cc(-c3cc(F)c(F)c(F)c3)nn2)[C@H]1O [Compound A204, (4R,5S,7R,8R,9S,10R)-4-(4-(2-chlorophenyl)-1H-1,2,3-triazol-1-yl)-7-(hydroxymethyl)-9-(4-(3,4,5-trifluorophenyl)-1H-1,2,3-triazol-1-yl)-1,6-dioxaspiro[4.5]decane-8,10-diol] | < 25% |
| OC[C@H]1O[C@]2(OCC[C@H]2n2cc(-c3cccc(Cl)c3)nn2)[C@H](O)[C@@H](n2cc(-c3cc(F)c(F)c(F)c3)nn2)[C@H]1O [Compound A205, (4R,5S,7R,8R,9S,10R)-4-(4-(3-chlorophenyl)-1H-1,2,3-triazol-1-yl)-7-(hydroxymethyl)-9-(4-(3,4,5-trifluorophenyl)-1H-1,2,3-triazol-1-yl)-1,6-dioxaspiro[4.5]decane-8,10-diol] | < 25% |

Reference: patent publication US20250026778A1 (TIUMBIO CO., LTD., priority 2021, published 2025)
